The source made the active and inactive calls.
Experiments:
[1] = target: Induced myeloid leukemia cell differentiation protein Mcl-1 (Homo sapiens, UniProt Q07820); assay type: functional
[2] = target: T1, High affinity choline transporter 1 (Homo sapiens, UniProt Q9GZV3); assay: human choline transporter blockers, potency – cell-based, 5-point CRC, membrane potential dye, dose response (AID 504840); assay type: functional
T1 sequence (Q9GZV3 whole entry): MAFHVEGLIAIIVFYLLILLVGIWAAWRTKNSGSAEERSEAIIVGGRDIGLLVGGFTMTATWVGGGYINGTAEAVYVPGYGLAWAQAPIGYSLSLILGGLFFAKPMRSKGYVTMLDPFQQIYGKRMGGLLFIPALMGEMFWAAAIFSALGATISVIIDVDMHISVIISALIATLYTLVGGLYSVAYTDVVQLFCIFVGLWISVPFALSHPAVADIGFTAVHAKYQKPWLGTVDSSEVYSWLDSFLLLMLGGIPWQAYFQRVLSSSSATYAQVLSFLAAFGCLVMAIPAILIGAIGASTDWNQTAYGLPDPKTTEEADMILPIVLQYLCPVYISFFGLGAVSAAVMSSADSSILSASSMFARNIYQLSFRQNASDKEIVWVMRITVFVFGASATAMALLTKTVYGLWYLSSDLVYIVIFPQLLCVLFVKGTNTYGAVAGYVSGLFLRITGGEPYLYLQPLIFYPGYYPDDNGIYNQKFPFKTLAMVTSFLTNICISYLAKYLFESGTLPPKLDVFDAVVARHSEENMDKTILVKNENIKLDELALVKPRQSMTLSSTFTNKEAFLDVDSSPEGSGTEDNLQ

[3] = THP-1 cell cytotoxicity, dose response, cytotoxicity control for non-replicating M. tuberculosis project (AID 489025); assay type: functional
[4] = Vero E6 cell cytotoxicity, dose response, cytotoxicity control for non-replicating M. tuberculosis project, secondary assay (AID 492998); assay type: functional, VeroE6; settings: Vero C1008
[5] = cells; assay type: functional
[6] = tested on: INS1; assay: INS-1E survival protection against cytokine death – cell-based, luminescence, retest, dose response (AID 449756); assay type: functional; settings: Rattus norvegicus;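 further: cell death triggered by IL-1 beta plus TNF-alpha plus IFN-gamma mixture; protective hits raise ATP signal compared with cytokine alone wells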
[7] = target: T2, Carboxy-terminal domain RNA polymerase II polypeptide A small phosphatase 1 (Homo sapiens, UniProt Q9GZU7); assay: CTDSP1 inhibitors, concentration-response, biochemical, absorbance readout, ultra-high-throughput screen actives (AID 540297); assay type: functional
T2 sequence (Q9GZU7 whole entry): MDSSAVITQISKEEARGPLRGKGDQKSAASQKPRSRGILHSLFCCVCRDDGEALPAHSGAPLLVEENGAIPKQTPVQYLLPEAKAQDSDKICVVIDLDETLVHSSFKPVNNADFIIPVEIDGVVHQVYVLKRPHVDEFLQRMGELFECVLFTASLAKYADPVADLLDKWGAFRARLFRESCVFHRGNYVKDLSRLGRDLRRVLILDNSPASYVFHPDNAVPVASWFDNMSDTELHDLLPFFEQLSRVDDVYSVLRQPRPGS

[8] = target: T3, Low molecular weight phosphotyrosine protein phosphatase (Homo sapiens, UniProt P24666); assay type: functional; settings: read-out: IC50_Mean;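 further: Dose-response confirmation assay measuring inhibition of LMPTP enzyme activity by fluorescence intensity read-out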
T3 sequence (P24666 whole entry): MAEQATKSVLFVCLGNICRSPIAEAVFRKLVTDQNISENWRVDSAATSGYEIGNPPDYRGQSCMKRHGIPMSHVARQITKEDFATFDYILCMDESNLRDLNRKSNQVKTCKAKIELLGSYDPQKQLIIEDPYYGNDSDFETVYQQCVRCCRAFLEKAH

[9] = Luminescence Cell-Based Dose Confirmation HTS to Identify Activators of 5'UTR Stem-Loop Driven Alpha-Synuclein mRNA Translation in H4 Neuroglioblastoma Cells. [Related pubchem assays: 1829 (Project Summary), 1814 (Primary HTS)]; assay type: functional
[10] = Luminescence Cell-Based Dose Response HTS to Identify Activators of Luciferase Translation or Activity in H4 […] Cells. [Related pubchem assays: 1829 (Project Summary), 1814 (Primary HTS)]; assay type: functional
[11] = tested on: H4; assay: Luminescence Cell-Based Dose Response HTS to Identify Activators of 5'UTR Stem-Loop Driven Prion Protein mRNA Translation in H4 Neuroglioblastoma Cells. [Related pubchem assays: 1829 (Project Summary), 1814 (Primary HTS)]; assay type: functional; settings: Homo sapiens
[12] = M. tuberculosis H37Rv growth inhibitors, H37Rv strain (AID 1626); assay type: functional
[13] = target: Voltage-dependent T-type calcium channel subunit alpha-1H (Homo sapiens, UniProt O95180); assay type: functional;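 further: channel activity triggered by adding a high calcium stimulation buffer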
Voltage-dependent T-type calcium channel subunit alpha-1H, sequence (O95180 whole entry): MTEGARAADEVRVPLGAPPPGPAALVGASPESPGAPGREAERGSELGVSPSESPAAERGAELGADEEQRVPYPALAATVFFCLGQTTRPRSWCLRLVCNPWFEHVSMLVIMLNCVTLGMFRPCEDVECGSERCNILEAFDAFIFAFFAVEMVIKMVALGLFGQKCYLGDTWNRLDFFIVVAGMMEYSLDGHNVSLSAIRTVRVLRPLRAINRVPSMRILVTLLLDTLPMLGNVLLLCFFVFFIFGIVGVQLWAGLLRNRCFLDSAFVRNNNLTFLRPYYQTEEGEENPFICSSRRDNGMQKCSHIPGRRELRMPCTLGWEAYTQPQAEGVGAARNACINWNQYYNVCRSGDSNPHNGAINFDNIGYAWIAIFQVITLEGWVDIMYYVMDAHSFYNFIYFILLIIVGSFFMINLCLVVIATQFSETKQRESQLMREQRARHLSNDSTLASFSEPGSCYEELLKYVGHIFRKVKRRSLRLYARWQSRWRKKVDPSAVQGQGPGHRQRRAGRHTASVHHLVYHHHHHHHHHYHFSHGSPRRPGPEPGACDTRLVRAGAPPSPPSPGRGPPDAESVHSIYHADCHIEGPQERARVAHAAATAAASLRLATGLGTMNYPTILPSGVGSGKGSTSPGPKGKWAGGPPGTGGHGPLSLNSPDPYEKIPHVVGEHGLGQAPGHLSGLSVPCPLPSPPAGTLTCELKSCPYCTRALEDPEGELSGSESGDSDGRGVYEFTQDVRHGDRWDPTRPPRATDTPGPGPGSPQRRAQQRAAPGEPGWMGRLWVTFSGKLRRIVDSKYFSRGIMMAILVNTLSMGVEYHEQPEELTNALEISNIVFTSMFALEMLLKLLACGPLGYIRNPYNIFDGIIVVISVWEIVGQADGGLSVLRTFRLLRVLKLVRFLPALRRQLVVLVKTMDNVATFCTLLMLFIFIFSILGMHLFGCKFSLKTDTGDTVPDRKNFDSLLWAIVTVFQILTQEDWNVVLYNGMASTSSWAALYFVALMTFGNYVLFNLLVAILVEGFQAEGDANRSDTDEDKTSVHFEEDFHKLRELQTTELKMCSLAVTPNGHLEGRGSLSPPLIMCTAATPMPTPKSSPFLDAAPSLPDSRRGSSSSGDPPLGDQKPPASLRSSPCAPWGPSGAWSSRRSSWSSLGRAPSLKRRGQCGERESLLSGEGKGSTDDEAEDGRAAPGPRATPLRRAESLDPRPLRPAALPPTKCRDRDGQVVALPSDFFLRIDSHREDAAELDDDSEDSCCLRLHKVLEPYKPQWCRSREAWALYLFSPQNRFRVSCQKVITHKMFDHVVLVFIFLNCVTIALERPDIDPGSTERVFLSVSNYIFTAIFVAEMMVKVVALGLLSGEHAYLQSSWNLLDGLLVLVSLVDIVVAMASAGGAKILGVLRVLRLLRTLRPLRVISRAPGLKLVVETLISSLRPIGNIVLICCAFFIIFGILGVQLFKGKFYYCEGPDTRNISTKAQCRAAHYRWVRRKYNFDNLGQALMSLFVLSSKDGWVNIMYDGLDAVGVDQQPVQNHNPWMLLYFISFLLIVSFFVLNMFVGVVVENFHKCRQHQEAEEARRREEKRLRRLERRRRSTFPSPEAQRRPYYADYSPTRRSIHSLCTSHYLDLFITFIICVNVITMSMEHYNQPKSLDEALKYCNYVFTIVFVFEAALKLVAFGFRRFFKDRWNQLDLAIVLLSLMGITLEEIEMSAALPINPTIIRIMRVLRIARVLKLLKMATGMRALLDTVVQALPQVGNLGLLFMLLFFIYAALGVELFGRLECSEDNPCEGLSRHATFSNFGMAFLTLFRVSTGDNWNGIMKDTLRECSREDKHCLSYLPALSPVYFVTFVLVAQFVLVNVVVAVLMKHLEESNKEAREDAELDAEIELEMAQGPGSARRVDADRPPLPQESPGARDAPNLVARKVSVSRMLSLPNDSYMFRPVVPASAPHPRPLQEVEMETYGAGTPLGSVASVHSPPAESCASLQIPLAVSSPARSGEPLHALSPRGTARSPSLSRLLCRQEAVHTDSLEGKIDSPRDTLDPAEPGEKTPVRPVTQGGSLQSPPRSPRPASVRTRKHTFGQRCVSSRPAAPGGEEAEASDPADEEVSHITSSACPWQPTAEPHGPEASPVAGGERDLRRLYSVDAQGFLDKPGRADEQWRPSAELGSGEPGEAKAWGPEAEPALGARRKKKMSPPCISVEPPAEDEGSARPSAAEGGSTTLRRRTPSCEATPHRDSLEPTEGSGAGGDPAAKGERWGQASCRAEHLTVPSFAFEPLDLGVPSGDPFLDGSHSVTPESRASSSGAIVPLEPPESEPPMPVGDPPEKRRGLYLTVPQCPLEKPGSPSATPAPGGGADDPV

[14] = target: T4, Polyadenylate-binding protein 1 (Homo sapiens, UniProt P11940); assay: MLLE binding blockers, Cy5 peptide tracer – biochemical, fluorescence polarization, Cy5-PAM2 peptide, secondary, miRNA deadenylation inhibitor project, dose response (AID 602260); assay type: functional; settings: read-out: IC50_Mean
T4 sequence (P11940 whole entry, the tested form may be a part): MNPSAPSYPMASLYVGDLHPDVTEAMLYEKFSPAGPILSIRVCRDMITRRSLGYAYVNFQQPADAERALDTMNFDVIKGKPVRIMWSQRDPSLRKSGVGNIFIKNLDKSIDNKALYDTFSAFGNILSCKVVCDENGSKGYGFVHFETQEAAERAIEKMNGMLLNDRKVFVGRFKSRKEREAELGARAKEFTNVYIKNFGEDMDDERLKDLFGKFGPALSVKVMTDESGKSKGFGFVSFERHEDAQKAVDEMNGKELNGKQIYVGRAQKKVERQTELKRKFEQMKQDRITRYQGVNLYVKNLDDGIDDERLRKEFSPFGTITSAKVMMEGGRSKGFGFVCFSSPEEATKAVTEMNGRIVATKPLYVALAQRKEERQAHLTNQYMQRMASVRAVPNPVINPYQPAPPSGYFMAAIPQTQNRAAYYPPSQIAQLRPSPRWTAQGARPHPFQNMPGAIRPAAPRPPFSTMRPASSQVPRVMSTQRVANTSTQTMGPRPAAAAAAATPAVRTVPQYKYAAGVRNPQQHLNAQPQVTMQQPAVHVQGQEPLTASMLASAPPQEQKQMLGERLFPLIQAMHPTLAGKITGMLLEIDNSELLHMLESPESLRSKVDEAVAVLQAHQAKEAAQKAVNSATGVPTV

[15] = target: T4, Polyadenylate-binding protein 1; assay: MLLE domain peptide-binding blockers, IC50 – biochemical, fluorescence polarization, FITC-PAM2 peptide, dose response (AID 602259); assay type: functional; settings: read-out: IC50_Mean
[16] = target: T5, DNA repair and recombination protein RAD54-like (Homo sapiens, UniProt Q92698); assay: RAD54 Holliday junction migration blockers – biochemical, fluorescence, cherry-picked samples, dose series, confirmation (AID 651657); assay type: functional
T5 sequence (Q92698 whole entry): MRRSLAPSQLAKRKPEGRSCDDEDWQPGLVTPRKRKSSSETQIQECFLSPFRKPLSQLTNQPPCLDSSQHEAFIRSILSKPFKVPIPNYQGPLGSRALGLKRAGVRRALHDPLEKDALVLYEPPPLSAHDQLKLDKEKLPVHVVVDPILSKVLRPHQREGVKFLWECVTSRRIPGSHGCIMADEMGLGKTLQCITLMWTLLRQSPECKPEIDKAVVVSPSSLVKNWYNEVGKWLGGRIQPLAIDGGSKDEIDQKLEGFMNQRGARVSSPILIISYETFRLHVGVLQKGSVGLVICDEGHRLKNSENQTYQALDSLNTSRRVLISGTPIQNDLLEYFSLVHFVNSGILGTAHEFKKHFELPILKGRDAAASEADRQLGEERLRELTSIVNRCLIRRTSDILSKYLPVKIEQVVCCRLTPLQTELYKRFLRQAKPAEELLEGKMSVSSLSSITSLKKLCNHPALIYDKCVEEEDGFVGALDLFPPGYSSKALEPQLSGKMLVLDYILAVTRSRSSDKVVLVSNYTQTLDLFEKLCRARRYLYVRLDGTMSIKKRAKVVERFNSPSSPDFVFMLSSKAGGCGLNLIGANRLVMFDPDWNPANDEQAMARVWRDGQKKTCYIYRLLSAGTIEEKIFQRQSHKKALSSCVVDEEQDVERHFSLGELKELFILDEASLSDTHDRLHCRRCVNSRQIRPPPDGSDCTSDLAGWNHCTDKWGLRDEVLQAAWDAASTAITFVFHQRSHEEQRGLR

[17] = tested on: Streptococcus sp. 'group A'; assay: Streptococcus pyogenes SK(-)GAS viability under kanamycin – luminescence, BacTiterGlo, confirmation, counter-screen for streptokinase expression inhibitor project, dose response (AID 1900); assay type: functional, organism-based
[18] = target: T6, Streptokinase A (Streptococcus pyogenes serotype M1, UniProt P10520); assay: viability-normalized secreted streptokinase activity reduction – plasminogen activation absorbance, OD405, dose response (AID 1914); assay type: functional, Streptococcus pyogenes M1 GAS;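 further: secreted streptokinase activity via plasminogen activation per viability signal from cell pellet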
T6 sequence (P10520 whole entry): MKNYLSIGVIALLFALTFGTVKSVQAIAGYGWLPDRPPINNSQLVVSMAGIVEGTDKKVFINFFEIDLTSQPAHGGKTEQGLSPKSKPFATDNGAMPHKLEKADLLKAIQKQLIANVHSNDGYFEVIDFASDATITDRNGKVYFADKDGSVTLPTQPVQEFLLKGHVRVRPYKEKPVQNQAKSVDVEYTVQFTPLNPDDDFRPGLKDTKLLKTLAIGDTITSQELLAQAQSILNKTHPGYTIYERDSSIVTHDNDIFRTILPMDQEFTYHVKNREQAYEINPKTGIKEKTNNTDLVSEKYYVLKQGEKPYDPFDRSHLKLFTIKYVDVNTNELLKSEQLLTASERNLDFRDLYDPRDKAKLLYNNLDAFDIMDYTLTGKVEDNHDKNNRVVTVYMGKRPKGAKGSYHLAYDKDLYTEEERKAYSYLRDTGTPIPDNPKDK

[19] = tested on: Streptococcus; assay: GAS UMAA2166 growth inhibition – luminescence, BacTiterGlo, counter-screen for streptokinase expression inhibitor project, dose response (AID 1915); assay type: functional, organism-based;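 further: potency for reduction of bacterial viability or growth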
[20] = tested on: H9c2; assay: cells; assay type: functional, cell-based; settings: Rattus norvegicus, H9c2, Myocardium;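 further: confirmatory concentration-response retest of ultra-high-throughput screening hits for modulation of myocardial damage; cell death induced by hydrogen peroxide oxidative stress; compound pretreatment for 60 min then peroxide exposure for 2 h; potency is for protecting the cells against peroxide damage rather than for killing them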

Induced myeloid leukemia cell differentiation protein Mcl-1, sequence (Q07820 whole entry): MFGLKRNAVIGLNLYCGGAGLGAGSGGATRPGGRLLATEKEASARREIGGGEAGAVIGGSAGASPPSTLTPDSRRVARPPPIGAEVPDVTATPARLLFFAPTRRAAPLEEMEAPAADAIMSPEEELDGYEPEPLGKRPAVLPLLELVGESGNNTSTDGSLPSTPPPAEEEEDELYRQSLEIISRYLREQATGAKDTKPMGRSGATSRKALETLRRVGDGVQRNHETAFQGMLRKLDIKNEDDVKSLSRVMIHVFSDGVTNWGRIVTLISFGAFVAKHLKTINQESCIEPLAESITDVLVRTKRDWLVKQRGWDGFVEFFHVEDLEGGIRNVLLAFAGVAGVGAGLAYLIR

## O=C(O)CSc1cc(C(=O)c2cc(F)ccc2O)cn2c(=O)c3c(-c4ccccc4)csc3nc12
[1]
  IC50: 2.79 µM (active)
[2]
  IC50: 16.6 µM (active)

## CCn1c(NC(=O)c2ccccc2)nc2ccccc21
[3]
  CC50: > 40 µM (active)
[4]
  CC50: 19.6 µM (active)
[5]
  IC50: 1.94 µM (active)

## Cc1csc2nc(NC(=O)c3ccccc3)sc(=O)c12
[6]
  AC50: > 260 µM (inactive)
[7]
  IC50: 7.03 µM (active)
[8]
  IC50: 29.8 µM (inactive)

## Cn1cnnc1SCc1ccc(-c2ccc(Br)cc2)o1
[9]
  EC50: 20.7 µM (active)
[10]
  EC50: 21.2 µM (active)
[11]
  EC50: 22.2 µM (active)
[12]
  IC50: > 100 µM (active)

## CCCn1c2ccccc2c2cnn(CC(=O)NCCCN3CCCCC3CC)c(=O)c21 (stereo not given)
[2]
  IC50: 13.6 µM (active)

## CCN(Cc1ccccc1)C(c1ccccn1)c1nnnn1C1CCCCC1 (stereo not given)
[13]
  EC50: 3.93 µM (active)

## O=C(CCN1CCOCC1)NNC(=S)NC(=O)c1ccccc1
[14]
  IC50: > 66 µM (inactive)
[15]
  IC50: > 66 µM (inactive)

## COc1cccc(N2CCN(C(=O)C3CCCN(c4ncnc5c4nc4n5CCCCC4)C3)CC2)c1 (stereo not given)
[2]
  IC50: 16.6 µM (active)

## CCOc1cc2[nH]c(=O)n(Cc3ccc(C(=O)NCCCN4CCC(C)CC4)cc3)c(=O)c2cc1OCC
[16]
  AC50: 55.9 µM (active)

## CCCNC(=O)NCCc1c(C)[nH]c2ccccc12
[14]
  IC50: > 66 µM (inactive)
[15]
  IC50: 45.9 µM (inactive)

## Cc1[nH]c2ccccc2c1C(=O)CN1CCCC(C)C1 (stereo not given)
[2]
  IC50: 15.8 µM (active)

## Cc1cccc(NC(=O)COc2ccc(/C=C\c3nc(O)nc(O)c3[N+](=O)[O-])cc2)c1
[7]
  IC50: 1.78 µM (active)
[8]
  IC50: 80 µM (inactive)

## O=C(N=Nc1c(O)[nH]c2ccc(F)cc12)c1ccc(NS(=O)(=O)c2cccs2)cc1
[8]
  IC50: 80 µM (inactive)

## O=C(OCc1nc2ccccc2s1)c1cccs1
[13]
  EC50: 12.2 µM (active)

## Cn1cc(C(=O)c2ccc(Cl)cc2Cl)cc1C(=O)NN=C(N)COc1cccc(C(F)(F)F)c1
[17]
  EC50: 2.31 µM (active)
[18]
  EC50: 133 µM (active)
[19]
  EC50: > 150 µM (not active)
[13]
  EC50: 2.61 µM (active)

## Cc1cccn2c(=O)c3cc(C(=O)NCC4CCCO4)c(=N)n(C4CCCCC4)c3nc12 (stereo not given)
[16]
  AC50: 56 µM (active)

## Cc1cccc(-c2noc(CN(C(=O)c3ccc4c(c3)OCO4)C(C)C)n2)c1
[13]
  EC50: 8.31 µM (active)

## N=c1n(CCN2CCCC2)c2ccccc2n1CC(O)c1ccco1 (stereo not given)
[14]
  IC50: > 66 µM (inactive)
[15]
  IC50: > 66 µM (inactive)

## COc1ccccc1C(CNC(=O)c1cccc(NS(=O)(=O)c2ccc(C)c(F)c2)c1)N1CCCC1 (stereo not given)
[2]
  IC50: 12.5 µM (active)

## CCC(C)(C)n1nnnc1C(c1ccc(C)cc1)N1CCN(Cc2ccc3c(c2)OCO3)CC1 (stereo not given)
[13]
  EC50: 6.68 µM (active)

## CCCc1nc2c(C)cc(Br)cn2c1Cc1ccsc1
[14]
  IC50: 35.7 µM (inactive)
[15]
  IC50: 41.9 µM (inactive)

## COc1cccc(/C=N/NC(=O)c2ccncc2)c1OC(=O)c1ccc(Br)cc1
[20]
  IC50: 12.8 µM (active)
[14]
  IC50: > 66 µM (inactive)
[15]
  IC50: 25.1 µM (inactive)

Source: ChEMBL document CHEMBL1201862, “PubChem BioAssay data set” (2004)
